This passage reports inhibition and Ki results from ChEMBL document CHEMBL4507291 (2021).

Data set [1] has as its target Dual specificity tyrosine-phosphorylation-regulated kinase 1A (Homo sapiens) (UniProt Q13627). Put plainly: DYRK1A Kinase screen. As to conditions: Compound concentration 1.0 uM; call rule not given here.
The next data set is filed under the species Rattus norvegicus. Put plainly: Glutamate, NMDA, Polyamine Eurofins-Panlabs radioligand binding assay. Also noted: ligand concentration 2 nM. It counts as protein-complex assay. As to conditions: Compound concentration 10.0 uM.
In data set [2] the target is Vasopressin V1b receptor (Homo sapiens) (UniProt P47901). Nature of the data set: Inhibition of Vasopressin V1B at 10 µM in the Eurofins-Panlabs radioligand binding assay (Eurofins_assay_287560). Also noted: ligand concentration 1 nM. The following applies: Compound concentration 10.0 uM.
Chain of Vasopressin V1b receptor (Homo sapiens) (P47901 whole entry): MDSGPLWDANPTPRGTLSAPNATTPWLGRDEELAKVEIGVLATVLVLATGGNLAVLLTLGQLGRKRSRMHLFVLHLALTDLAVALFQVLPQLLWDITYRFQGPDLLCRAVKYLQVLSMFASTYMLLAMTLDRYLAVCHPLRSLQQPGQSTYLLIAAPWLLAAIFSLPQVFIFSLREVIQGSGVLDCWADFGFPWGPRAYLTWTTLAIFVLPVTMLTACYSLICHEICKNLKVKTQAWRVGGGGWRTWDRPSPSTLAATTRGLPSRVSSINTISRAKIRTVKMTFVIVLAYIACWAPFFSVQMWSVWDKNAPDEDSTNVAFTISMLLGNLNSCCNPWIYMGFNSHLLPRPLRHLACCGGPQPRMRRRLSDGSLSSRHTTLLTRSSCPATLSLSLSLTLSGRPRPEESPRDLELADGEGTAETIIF
Data set [3] has as its target Serine/threonine-protein kinase Nek4 (Homo sapiens) (UniProt P51957). Nature of the data set: NEK4 Kinase screen. The following applies: Compound concentration 1.0 uM.
Data set [4] has as its target MAO-A (amine oxidase [flavin-containing] A) (Homo sapiens, UniProt P21397). Put plainly: Inhibition of Monoamine Oxidase MAO-A at compound concentration of 10.0 uM in the Eurofins-Panlabs enzyme assay (Eurofins_assay_140010). Also noted: substrate with concentration 50 uM Kynuramine, incubation time 60 min, incubation temperature 37 C. As to conditions: recombinant human MAO-A expressed in insect Hi5 cells, probe kynuramine (50 uM), compound concentration 10 uM.

In data set [5] the target is Tyrosine-protein kinase Lck (Homo sapiens) (UniProt P06239). Put plainly: LCK Kinase screen. As to conditions: Compound concentration 1.0 uM.
Data set [6] has as its target Ribosomal protein S6 kinase alpha-2 (Homo sapiens) (UniProt Q15349). Nature of the data set: RPS6KA2 (RSK3) Kinase screen. The following applies: Compound concentration 1.0 uM.
Data set [7] deals with T1, NUAK family SNF1-like kinase 1 (Homo sapiens) (UniProt O60285).
T1 sequence (whole entry): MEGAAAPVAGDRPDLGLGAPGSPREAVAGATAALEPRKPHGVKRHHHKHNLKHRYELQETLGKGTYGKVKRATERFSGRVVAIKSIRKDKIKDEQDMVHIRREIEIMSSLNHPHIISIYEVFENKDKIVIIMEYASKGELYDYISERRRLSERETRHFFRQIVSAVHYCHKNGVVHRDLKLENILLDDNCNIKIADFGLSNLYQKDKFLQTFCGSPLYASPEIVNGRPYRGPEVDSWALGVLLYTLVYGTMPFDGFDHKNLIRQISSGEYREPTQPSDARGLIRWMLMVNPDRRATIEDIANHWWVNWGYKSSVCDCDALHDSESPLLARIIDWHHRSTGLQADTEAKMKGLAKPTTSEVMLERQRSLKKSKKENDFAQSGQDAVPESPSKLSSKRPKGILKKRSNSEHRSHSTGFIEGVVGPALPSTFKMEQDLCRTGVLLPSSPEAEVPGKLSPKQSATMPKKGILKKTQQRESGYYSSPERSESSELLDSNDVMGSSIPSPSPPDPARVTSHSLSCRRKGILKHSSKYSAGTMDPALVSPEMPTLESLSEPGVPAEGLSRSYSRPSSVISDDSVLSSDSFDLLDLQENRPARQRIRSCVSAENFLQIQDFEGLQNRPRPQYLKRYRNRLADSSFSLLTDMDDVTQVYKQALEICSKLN
Nature of the data set: NUAK1 (ARK5) Kinase screen. As to conditions: Compound concentration 1.0 uM.

Data set [8] has as its target Insulin-like growth factor 1 receptor (Homo sapiens) (UniProt P08069). Nature of the data set: IGF1R Kinase screen. The following applies: Compound concentration 1.0 uM.
The target in data set [9] is Mitogen-activated protein kinase kinase kinase 14 (Homo sapiens) (UniProt Q99558). Nature of the data set: MAP3K14 (NIK) Kinase screen. As to conditions: Compound concentration 1.0 uM.
Chain of Mitogen-activated protein kinase kinase kinase 14 (Homo sapiens) (Q99558 whole entry, looked up): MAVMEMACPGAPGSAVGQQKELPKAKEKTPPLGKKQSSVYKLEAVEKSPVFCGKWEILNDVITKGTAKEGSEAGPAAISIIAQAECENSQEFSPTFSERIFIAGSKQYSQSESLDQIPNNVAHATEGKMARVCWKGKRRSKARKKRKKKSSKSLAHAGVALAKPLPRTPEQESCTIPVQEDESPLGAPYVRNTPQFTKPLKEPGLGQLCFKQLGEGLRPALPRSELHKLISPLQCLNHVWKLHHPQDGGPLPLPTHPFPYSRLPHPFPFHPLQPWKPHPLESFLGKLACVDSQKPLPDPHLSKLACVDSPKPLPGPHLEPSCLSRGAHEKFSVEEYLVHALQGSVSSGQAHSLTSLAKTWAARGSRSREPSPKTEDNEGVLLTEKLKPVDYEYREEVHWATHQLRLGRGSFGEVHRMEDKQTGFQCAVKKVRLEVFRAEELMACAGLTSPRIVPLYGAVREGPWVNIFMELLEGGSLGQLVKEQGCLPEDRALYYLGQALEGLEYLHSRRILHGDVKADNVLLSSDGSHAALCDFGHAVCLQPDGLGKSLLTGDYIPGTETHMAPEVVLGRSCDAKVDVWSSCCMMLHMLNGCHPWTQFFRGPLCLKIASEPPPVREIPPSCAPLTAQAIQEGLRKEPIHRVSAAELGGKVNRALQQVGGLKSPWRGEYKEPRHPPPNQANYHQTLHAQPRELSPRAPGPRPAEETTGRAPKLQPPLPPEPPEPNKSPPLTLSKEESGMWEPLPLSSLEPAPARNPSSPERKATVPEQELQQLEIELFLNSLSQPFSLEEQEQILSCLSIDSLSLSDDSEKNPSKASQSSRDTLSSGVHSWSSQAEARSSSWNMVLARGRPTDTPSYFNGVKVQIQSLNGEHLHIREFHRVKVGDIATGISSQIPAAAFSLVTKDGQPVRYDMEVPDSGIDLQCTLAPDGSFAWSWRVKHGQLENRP
Data set [10] concerns the target Serine/threonine-protein kinase WNK2 (Homo sapiens) (UniProt Q9Y3S1). Put plainly: WNK2 Kinase screen. As to conditions: Compound concentration 1.0 uM.
Data set [11] addresses Mitogen-activated protein kinase kinase kinase 20 (Homo sapiens) (UniProt Q9NYL2). Nature of the data set: ZAK Kinase screen. The following applies: Compound concentration 1.0 uM.
The target in data set [12] is Vascular endothelial growth factor receptor 1 (Homo sapiens) (UniProt P17948). Nature of the data set: FLT1 (VEGFR1) Kinase screen. The following applies: Compound concentration 1.0 uM.
Chain of Vascular endothelial growth factor receptor 1 (Homo sapiens) (P17948 whole entry): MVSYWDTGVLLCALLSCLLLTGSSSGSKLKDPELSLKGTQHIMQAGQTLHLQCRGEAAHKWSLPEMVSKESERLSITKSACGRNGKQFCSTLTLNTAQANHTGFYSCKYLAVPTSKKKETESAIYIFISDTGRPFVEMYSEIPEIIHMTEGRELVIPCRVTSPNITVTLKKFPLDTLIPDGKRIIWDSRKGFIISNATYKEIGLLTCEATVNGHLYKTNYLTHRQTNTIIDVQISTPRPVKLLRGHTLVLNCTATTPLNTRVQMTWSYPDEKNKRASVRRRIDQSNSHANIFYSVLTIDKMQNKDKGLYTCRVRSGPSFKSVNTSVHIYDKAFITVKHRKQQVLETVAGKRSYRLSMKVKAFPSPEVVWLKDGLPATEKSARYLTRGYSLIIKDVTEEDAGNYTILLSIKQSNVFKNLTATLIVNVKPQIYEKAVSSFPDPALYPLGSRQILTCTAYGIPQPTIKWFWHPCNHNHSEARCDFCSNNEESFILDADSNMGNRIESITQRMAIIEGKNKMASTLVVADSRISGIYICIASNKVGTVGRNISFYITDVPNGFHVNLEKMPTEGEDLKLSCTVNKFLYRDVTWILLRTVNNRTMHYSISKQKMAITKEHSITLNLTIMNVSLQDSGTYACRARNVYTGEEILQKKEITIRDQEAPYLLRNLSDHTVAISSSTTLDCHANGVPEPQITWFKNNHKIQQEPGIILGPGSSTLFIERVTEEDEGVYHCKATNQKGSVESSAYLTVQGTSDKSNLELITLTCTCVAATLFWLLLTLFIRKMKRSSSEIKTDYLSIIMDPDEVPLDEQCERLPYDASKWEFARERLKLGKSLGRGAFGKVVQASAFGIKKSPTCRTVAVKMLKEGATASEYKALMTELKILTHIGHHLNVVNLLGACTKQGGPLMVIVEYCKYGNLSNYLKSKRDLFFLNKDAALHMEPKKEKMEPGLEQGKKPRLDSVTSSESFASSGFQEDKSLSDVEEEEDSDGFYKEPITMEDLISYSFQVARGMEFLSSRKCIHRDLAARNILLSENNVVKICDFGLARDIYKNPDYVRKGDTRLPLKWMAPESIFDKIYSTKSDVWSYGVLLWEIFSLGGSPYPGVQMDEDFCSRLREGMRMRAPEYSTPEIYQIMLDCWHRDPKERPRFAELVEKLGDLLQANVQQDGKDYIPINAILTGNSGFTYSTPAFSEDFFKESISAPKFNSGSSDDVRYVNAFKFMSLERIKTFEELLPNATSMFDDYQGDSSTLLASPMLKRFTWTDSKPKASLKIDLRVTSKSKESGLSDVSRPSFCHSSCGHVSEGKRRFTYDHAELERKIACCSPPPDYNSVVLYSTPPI
Data set [13] concerns the target Glucocorticoid receptor (Homo sapiens) (UniProt P04150). As to conditions: Compound concentration 10.0 uM.
In data set [14] the target is Peroxisome proliferator-activated receptor alpha (Homo sapiens) (UniProt Q07869). Put plainly: PPARalpha Eurofins-Panlabs radioligand binding assay. As to conditions: Compound concentration 10.0 uM.
Data set [15] addresses T2, Mitogen-activated protein kinase kinase kinase 2 (Homo sapiens) (UniProt Q9Y2U5).
T2 sequence (whole entry): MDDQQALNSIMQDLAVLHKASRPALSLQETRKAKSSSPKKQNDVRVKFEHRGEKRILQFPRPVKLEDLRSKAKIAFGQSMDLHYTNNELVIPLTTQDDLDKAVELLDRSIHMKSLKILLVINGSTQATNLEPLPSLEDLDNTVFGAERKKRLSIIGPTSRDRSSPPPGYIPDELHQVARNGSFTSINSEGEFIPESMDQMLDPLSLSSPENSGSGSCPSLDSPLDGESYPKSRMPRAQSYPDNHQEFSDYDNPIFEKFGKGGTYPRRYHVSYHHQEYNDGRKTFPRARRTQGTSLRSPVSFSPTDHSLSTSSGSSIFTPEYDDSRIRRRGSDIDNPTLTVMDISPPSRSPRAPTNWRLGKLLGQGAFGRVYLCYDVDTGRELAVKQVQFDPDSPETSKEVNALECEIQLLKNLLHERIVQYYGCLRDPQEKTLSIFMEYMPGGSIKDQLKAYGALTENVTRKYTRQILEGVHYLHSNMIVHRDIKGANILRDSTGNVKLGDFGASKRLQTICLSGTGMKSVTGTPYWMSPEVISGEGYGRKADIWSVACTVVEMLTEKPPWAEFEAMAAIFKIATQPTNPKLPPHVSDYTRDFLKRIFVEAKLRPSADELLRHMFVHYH
Nature of the data set: MAP3K2 (MEKK2) Kinase screen. As to conditions: Compound concentration 1.0 uM.

Data set [16] deals with Epidermal growth factor receptor (Homo sapiens) (UniProt P00533). Nature of the data set: EGFR (ErbB1) Kinase screen. As to conditions: Compound concentration 1.0 uM.
Chain of Epidermal growth factor receptor (Homo sapiens) (P00533 whole entry): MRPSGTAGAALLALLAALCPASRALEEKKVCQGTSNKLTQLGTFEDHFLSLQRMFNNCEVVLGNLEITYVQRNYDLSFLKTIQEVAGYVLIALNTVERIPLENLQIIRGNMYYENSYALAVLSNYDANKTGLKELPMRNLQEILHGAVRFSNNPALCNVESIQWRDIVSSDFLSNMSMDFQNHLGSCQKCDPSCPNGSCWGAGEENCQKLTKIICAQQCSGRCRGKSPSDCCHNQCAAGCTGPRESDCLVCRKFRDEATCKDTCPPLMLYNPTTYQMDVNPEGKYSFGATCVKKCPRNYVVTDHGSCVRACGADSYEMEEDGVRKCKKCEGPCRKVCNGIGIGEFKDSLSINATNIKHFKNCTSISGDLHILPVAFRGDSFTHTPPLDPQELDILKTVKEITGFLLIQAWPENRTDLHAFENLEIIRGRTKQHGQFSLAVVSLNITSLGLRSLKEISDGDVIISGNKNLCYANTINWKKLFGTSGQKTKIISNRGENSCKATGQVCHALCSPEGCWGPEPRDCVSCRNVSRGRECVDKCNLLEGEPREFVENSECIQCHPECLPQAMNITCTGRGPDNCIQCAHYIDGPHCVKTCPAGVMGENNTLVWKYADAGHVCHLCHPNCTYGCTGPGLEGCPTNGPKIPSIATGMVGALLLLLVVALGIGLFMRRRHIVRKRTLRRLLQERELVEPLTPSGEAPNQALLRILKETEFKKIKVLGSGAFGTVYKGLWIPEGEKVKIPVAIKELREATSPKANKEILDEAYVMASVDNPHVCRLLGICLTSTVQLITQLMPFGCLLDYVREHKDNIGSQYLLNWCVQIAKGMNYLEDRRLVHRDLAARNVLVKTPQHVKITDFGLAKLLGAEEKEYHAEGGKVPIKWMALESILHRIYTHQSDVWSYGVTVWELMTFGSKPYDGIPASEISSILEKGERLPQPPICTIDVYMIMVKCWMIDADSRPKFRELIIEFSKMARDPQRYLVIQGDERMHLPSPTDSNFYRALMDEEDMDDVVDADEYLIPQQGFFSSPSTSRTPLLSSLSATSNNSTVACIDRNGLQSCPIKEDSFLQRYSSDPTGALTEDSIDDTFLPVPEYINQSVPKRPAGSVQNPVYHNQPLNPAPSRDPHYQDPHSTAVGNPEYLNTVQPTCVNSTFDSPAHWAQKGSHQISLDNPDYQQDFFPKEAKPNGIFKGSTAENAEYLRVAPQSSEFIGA
Data set [17] addresses Casein kinase II subunit alpha' (Homo sapiens) (UniProt P19784). Nature of the data set: CSNK2A2 (CK2 alpha 2) Kinase screen. As to conditions: Compound concentration 1.0 uM.
Data set [18] addresses Peroxisome proliferator-activated receptor gamma (Homo sapiens, UniProt P37231). Put plainly: (§1) PPARgamma Eurofins-Panlabs radioligand binding assay. Also noted: ligand concentration 5 nM, non-specific ligand with concentration 0.5 µM L-797773, incubation time 18 h, incubation temperature 15 °C.
Data set [19] concerns the target T3, Peroxisome proliferator-activated receptor gamma (Homo sapiens) (UniProt P37231).
T3 sequence (whole entry): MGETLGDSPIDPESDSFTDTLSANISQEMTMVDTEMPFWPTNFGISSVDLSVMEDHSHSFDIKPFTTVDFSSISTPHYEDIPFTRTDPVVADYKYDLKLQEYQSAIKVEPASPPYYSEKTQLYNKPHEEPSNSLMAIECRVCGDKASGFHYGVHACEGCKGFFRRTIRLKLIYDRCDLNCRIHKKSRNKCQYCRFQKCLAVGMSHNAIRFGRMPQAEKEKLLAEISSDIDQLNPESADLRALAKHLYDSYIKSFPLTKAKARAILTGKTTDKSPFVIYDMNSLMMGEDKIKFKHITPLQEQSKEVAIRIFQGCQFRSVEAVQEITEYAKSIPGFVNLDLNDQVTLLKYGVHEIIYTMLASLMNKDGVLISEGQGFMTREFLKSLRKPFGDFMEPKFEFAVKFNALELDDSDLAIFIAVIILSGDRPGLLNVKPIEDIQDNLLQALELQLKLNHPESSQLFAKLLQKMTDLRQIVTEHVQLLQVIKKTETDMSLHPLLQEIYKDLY
The description is as §1. Also noted: ligand concentration 5 nM, non-specific ligand with concentration 0.5 µM L-797773, incubation time 18 h, incubation temperature 15 °C.

The target of data set [20] is Mu-type opioid receptor (Homo sapiens) (UniProt P35372). The following applies: Compound concentration 10.0 uM.
Chain of Mu-type opioid receptor (Homo sapiens) (P35372 whole entry): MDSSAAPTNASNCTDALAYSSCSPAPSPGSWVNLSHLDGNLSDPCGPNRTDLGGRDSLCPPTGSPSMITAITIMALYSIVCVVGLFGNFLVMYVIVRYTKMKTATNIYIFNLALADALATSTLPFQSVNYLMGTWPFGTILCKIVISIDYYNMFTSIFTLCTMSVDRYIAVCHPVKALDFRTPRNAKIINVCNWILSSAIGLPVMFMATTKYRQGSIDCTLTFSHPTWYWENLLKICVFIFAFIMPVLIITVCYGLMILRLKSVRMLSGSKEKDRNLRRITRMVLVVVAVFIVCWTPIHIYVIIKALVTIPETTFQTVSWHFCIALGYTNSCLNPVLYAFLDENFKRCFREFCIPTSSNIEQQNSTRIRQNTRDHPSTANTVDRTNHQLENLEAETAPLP

Chain of Glucocorticoid receptor (Homo sapiens) (P04150 whole entry): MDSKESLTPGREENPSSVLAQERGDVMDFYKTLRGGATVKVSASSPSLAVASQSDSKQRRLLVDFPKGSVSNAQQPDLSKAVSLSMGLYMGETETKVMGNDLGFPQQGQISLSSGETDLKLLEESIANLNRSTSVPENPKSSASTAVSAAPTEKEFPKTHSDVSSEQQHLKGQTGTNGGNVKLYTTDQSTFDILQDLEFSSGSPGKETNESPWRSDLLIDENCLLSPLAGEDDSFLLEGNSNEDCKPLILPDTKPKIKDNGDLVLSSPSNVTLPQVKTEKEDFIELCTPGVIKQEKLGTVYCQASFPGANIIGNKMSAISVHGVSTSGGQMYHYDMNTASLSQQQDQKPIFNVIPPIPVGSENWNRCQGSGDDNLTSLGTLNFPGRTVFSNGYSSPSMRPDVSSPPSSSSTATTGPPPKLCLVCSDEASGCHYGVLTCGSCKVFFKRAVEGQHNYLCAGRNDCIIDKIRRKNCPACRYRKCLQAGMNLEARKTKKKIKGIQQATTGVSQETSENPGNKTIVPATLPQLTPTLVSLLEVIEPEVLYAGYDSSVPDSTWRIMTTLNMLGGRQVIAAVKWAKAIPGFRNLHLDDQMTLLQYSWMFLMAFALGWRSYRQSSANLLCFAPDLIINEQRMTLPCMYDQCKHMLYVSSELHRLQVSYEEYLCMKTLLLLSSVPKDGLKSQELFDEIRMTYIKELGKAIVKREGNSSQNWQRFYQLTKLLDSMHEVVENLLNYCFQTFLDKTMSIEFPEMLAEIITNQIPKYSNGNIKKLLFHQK

In the case of `C[C@@H]1CN(c2cc(-c3n[nH]c4ccc(OC5(C)CC5)cc34)ncn2)C[C@H](C)O1` [MLi-2], the inhibition is 4.36% in data set [1]; 19% in the data set listed under Rattus norvegicus; 1% in [2]; 6.39% in [3]; 10.4% in [5]; 7.53% in data set [6]. Also, the inhibition was 14.5% in data set [7]; 1.96% in data set [8]; 78.8% in data set [9]; -1.69% in [10]; 4.32% in data set [11]; -1.02% in data set [12]. Besides, the inhibition is 19% in data set [13]; 10% in data set [14]; 7.58% in data set [15]; -0.77% in data set [16]; 10.4% in [17]; 6% in data set [19] (Compound concentration 0.01 uM). Moreover, the inhibition in data set [19] (Compound concentration 0.1 uM) was 0%; in data set [19] (Compound concentration 1.0 uM), 10%; in data set [19] (Compound concentration 10.0 uM), 62%. For the same compound, in data set [4], the inhibition at 60 min, 10 µM is 2% (not active). The compound further registered a Ki in [18] of 1190 nM.

In the case of `C[C@@H]1CN(c2cc(-c3nn(C)c4ccc(OC5(C)CC5)cc34)ncn2)C[C@H](C)O1` [MLi-2-NC], in data set [20], the inhibition is 13.2%.

In general, inhibition refers to the change of the read-out against control, counted positive when it falls. For orientation: Ki means the equilibrium dissociation constant of an inhibitor or competing ligand from its target. Higher therefore signals lower affinity.
